pIC50: −log10 of the molar value. Active and inactive are the calls of the source. No cut-off for these calls is given here.
Tests used:
MDA-MB-231 [1] = assay: Cytotoxicity against human MDA-MB-231 cells at 10 uM by MTT assay; assay type: functional
HCC1954 [2] = assay: Cytotoxicity against human HCC1954 cells at 5 uM by MTT assay; assay type: functional
MDA-MB-231 [3] = assay: Cytotoxicity against human MDA-MB-231 cells by MTT assay; assay type: functional, cell-based
HCC1954 [4] = assay: Cytotoxicity against human HCC1954 cells by MTT assay; assay type: functional, cell-based
[5] = biological target: Receptor-interacting serine/threonine-protein kinase 3 (Homo sapiens) (UniProt Q9Y572); assay: Inhibition of human RIPK3
[6] = biological target: Mast/stem cell growth factor receptor Kit (Homo sapiens) (UniProt P10721); assay: Inhibition of recombinant human GST-tagged KIT (544-end residues) transphosphorylation activity expressed in baculovirus infected Sf9 cells using poly[Glu:Tyr] (4:1) as substrate after 60 mins
[7] = biological target: Receptor-type tyrosine-protein kinase FLT3 (Homo sapiens) (UniProt P36888); assay: Inhibition of recombinant human GST-tagged FLT3 (571 to 993 residues) transphosphorylation activity expressed in baculovirus infected Sf9 cells using poly[Glu:Tyr] (4:1) as substrate after 60 mins
[8] = biological target: T1, Phosphatidylinositol 4,5-bisphosphate 3-kinase catalytic subunit alpha isoform (Homo sapiens, UniProt P42336); assay: Inhibition of PI3Kalpha catalytic domain (unknown origin) at 10 uM using PIP2 liposomes as substrate in presence of biotin-labeled PIP3 and GST-GRP1-PH by streptavidin-HRP based assays
[9] = Cmax in NOD/SCID mouse at 0.5 mg/kg, ip administered as single dose by LC-MS/MS method; assay type: ADME, organism-based; parameters: dose 0.5 mg/kg, route intraperitoneal; conditions: in vivo
[10] = Tmax in NOD/SCID mouse at 0.5 mg/kg, ip administered as single dose by LC-MS/MS method; assay type: ADME, organism-based; conditions: in vivo
[11] = AUC (0 to 8 hrs) in NOD/SCID mouse at 0.5 mg/kg, ip administered as single dose by LC-MS/MS method; assay type: ADME, organism-based; parameters: dose 0.5 mg/kg, time < 8 hr, route intraperitoneal; conditions: in vivo
Mus musculus [12] = assay: Toxicity in NOD/SCID mouse assessed as phenotypic changes at 0.5 mg/kg, po administered as single dose; assay type: organism-based; conditions: in vivo
[13] = Cmax in NOD/SCID mouse at 10 mg/kg, ip administered as single dose by LC-MS/MS method; assay type: ADME, organism-based; parameters: dose 10 mg/kg, route intraperitoneal; conditions: in vivo
Mus musculus [14] = assay: Toxicity in NOD/SCID mouse assessed as phenotypic changes at 40 mg/kg, ip […]; assay type: organism-based; conditions: in vivo
HCC1954 [15] = assay: Anti-tumor activity against HER2-amplified human HCC1954 cells xenografted in NOD/SCID mouse assessed as tumor weight at 10 mg/kg, ip administered once daily for 18 days measured after 1 hr last dose (reference value: 0.8 +/- 0.07 g); assay type: functional
Mus musculus [16] = assay: In vivo inhibition of SRC phosphorylation in NOD/SCID mouse tumor xenografted with HER2-amplified human HCC1954 cells at 10 mg/kg, ip administered once daily for 18 days measured after 1 hr last dose; assay type: functional, organism-based
[17] = biological target: Epidermal growth factor receptor (Homo sapiens) (UniProt P00533); assay: Inhibition of human EGFR (R669 to V1011 residues) expressed in bacterial expression system at 10 uM by KinomeScan method relative to control
[18] = biological target: Ephrin type-A receptor 1 (Homo sapiens) (UniProt P21709); assay: Inhibition of human wild type partial length EPHA1 (V588 to I913 residues) expressed in bacterial expression system at 10 uM by KinomeScan method relative to control
[19] = biological target: Mitogen-activated protein kinase 1 (Homo sapiens) (UniProt P28482); assay: Inhibition of human wild type full length ERK2 (M1 to S360 residues) expressed in bacterial expression system at 10 uM by KinomeScan method relative to control
[20] = biological target: Fibroblast growth factor receptor 1 (Homo sapiens) (UniProt P11362); assay: Inhibition of human wild type partial length FGFR1 (P357 to V669 residues) expressed in bacterial expression system at 10 uM by KinomeScan method relative to control
[21] = biological target: Tyrosine-protein kinase Fyn (Homo sapiens) (UniProt P06241); assay: Inhibition of human wild type partial length FYN (T243 to L534 residues) expressed in bacterial expression system at 10 uM by KinomeScan method relative to control
[22] = biological target: Tyrosine-protein kinase ITK/TSK (Homo sapiens) (UniProt Q08881); assay: Inhibition of human wild type partial length ITK (R335 to L620 residues) expressed in bacterial expression system at 10 uM by KinomeScan method relative to control
[23] = biological target: Tyrosine-protein kinase JAK3 (Homo sapiens) (UniProt P52333); assay: Inhibition of human wild type partial length JAK3 (I781 to S1124 residues) expressed in mammalian expression system at 10 uM by KinomeScan method relative to control
[24] = biological target: Hepatocyte growth factor receptor (Homo sapiens) (UniProt P08581); assay: Inhibition of human wild type partial length MET (D1010 to S1367 residues) expressed in bacterial expression system at 10 uM by KinomeScan method relative to control
[25] = biological target: T1, Phosphatidylinositol 4,5-bisphosphate 3-kinase catalytic subunit alpha isoform; assay: Inhibition of human wild type partial length PIK3CA (R108 to N1068 residues) expressed in mammalian expression system at 10 uM by KinomeScan method relative to control
[26] = biological target: Proto-oncogene tyrosine-protein kinase Src (Homo sapiens) (UniProt P12931); assay: Inhibition of human wild type partial length SRC (L240 to L536 residues) expressed in bacterial expression system at 10 uM by KinomeScan method relative to control
[27] = biological target: Tyrosine-protein kinase Tec (Homo sapiens) (UniProt P42680); assay: Inhibition of human wild type partial length TEC (L341 to D620 residues) expressed in bacterial expression system at 10 uM by KinomeScan method relative to control
[28] = biological target: Vascular endothelial growth factor receptor 2 (Homo sapiens) (UniProt P35968); assay: Inhibition of human wild type partial length VEGFR2 (R787 to P1253 residues) expressed in mammalian expression system at 10 uM by KinomeScan method relative to control
[29] = biological target: Tyrosine-protein kinase ZAP-70 (Homo sapiens) (UniProt P43403); assay: Inhibition of human wild type partial length ZAP70 (D20 to G299 residues) expressed in mammalian expression system at 10 uM by KinomeScan method relative to control

T1 sequence (P42336 whole entry, the tested form may be a part, canonical isoform): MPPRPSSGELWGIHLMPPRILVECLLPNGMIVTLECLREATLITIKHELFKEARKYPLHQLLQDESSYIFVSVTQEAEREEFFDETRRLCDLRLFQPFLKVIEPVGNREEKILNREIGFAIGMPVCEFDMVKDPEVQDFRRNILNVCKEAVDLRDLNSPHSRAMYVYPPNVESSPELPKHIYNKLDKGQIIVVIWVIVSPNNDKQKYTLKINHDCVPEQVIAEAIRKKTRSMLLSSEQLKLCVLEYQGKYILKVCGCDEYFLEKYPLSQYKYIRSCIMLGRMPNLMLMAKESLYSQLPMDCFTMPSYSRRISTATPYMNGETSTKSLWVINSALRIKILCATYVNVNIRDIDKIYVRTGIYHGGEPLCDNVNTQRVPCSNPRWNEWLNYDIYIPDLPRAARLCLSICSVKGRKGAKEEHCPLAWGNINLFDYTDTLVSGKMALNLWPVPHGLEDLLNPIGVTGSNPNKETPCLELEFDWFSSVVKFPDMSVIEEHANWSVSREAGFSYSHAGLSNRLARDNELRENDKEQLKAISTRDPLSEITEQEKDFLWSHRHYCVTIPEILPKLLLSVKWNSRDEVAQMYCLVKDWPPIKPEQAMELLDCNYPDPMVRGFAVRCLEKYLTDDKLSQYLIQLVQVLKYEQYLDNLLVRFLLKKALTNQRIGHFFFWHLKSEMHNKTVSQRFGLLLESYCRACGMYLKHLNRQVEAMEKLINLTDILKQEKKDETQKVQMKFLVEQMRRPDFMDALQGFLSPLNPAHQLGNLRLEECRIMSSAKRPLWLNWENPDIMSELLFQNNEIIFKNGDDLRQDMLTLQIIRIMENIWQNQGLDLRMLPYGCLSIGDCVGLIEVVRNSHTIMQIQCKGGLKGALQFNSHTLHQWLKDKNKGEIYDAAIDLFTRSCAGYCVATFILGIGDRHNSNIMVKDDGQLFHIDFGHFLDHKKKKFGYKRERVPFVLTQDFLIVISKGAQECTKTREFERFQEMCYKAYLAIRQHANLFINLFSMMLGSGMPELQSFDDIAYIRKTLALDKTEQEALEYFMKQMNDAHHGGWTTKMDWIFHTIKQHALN
Sequence of Proto-oncogene tyrosine-protein kinase Src (Homo sapiens) (P12931 2-536 limits assumed): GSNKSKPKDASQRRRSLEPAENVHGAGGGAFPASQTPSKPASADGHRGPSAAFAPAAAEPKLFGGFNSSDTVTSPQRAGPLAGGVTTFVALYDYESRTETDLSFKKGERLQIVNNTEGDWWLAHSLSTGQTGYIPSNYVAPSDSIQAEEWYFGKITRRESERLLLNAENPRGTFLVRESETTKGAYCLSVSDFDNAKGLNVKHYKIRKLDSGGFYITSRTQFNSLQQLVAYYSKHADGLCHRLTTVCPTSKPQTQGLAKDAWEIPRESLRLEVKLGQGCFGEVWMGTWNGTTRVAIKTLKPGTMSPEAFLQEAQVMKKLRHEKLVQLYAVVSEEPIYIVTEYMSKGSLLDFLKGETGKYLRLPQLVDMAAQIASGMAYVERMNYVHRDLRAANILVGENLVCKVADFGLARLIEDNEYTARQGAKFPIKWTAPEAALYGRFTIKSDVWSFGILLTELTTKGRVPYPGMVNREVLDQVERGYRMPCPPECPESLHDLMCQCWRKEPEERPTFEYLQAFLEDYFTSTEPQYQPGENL
Sequence of Fibroblast growth factor receptor 1 (Homo sapiens) (P11362 22-822 limits assumed): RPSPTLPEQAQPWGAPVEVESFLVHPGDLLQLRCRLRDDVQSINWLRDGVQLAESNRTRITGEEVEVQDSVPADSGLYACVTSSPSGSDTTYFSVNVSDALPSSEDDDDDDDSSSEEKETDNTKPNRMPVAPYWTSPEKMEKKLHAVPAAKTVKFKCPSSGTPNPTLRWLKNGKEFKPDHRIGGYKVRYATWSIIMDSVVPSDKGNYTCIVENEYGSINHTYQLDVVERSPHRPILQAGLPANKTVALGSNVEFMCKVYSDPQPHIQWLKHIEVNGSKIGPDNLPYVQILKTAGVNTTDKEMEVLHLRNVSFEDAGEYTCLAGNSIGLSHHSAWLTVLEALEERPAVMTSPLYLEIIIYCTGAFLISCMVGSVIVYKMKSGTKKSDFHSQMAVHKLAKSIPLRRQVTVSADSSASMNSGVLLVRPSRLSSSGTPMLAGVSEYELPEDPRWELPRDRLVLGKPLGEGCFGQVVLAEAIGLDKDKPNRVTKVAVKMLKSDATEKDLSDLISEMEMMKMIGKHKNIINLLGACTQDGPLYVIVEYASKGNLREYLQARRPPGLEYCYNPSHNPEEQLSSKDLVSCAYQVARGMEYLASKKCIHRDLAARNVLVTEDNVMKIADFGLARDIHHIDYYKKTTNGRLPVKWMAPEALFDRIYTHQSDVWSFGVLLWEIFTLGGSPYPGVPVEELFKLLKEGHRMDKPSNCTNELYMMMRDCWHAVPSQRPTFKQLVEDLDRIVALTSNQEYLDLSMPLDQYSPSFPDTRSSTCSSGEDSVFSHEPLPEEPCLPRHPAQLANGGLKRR
Sequence of Tyrosine-protein kinase Tec (Homo sapiens) (P42680 whole entry, the tested form may be a part): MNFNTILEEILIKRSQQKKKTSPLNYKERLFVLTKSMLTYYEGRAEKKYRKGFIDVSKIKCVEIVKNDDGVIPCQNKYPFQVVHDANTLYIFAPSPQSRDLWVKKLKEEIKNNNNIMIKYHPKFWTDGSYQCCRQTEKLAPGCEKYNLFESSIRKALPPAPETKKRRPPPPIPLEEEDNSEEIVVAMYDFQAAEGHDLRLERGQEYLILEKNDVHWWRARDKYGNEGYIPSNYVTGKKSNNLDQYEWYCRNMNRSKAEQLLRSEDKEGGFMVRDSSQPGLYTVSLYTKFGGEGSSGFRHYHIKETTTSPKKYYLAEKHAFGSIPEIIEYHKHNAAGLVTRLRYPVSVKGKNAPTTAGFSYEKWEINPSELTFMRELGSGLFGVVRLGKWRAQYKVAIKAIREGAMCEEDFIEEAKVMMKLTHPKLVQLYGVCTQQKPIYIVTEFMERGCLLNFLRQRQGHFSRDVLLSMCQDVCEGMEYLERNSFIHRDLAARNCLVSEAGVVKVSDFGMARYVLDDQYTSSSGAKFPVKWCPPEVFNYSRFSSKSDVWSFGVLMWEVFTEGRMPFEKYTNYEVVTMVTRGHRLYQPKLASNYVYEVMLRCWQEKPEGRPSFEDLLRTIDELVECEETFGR
Sequence of Mitogen-activated protein kinase 1 (Homo sapiens) (P28482 whole entry, the tested form may be a part): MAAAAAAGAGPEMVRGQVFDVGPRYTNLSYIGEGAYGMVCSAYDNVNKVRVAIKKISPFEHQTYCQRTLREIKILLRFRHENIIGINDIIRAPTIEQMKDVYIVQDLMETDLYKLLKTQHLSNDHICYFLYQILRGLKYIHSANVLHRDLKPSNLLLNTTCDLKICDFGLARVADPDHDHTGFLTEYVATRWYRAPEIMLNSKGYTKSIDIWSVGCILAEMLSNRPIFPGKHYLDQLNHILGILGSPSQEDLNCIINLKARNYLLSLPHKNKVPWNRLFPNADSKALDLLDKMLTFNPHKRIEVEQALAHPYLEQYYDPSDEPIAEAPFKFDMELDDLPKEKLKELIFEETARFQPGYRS
Sequence of Hepatocyte growth factor receptor (Homo sapiens) (P08581 whole entry, the tested form may be a part, canonical isoform): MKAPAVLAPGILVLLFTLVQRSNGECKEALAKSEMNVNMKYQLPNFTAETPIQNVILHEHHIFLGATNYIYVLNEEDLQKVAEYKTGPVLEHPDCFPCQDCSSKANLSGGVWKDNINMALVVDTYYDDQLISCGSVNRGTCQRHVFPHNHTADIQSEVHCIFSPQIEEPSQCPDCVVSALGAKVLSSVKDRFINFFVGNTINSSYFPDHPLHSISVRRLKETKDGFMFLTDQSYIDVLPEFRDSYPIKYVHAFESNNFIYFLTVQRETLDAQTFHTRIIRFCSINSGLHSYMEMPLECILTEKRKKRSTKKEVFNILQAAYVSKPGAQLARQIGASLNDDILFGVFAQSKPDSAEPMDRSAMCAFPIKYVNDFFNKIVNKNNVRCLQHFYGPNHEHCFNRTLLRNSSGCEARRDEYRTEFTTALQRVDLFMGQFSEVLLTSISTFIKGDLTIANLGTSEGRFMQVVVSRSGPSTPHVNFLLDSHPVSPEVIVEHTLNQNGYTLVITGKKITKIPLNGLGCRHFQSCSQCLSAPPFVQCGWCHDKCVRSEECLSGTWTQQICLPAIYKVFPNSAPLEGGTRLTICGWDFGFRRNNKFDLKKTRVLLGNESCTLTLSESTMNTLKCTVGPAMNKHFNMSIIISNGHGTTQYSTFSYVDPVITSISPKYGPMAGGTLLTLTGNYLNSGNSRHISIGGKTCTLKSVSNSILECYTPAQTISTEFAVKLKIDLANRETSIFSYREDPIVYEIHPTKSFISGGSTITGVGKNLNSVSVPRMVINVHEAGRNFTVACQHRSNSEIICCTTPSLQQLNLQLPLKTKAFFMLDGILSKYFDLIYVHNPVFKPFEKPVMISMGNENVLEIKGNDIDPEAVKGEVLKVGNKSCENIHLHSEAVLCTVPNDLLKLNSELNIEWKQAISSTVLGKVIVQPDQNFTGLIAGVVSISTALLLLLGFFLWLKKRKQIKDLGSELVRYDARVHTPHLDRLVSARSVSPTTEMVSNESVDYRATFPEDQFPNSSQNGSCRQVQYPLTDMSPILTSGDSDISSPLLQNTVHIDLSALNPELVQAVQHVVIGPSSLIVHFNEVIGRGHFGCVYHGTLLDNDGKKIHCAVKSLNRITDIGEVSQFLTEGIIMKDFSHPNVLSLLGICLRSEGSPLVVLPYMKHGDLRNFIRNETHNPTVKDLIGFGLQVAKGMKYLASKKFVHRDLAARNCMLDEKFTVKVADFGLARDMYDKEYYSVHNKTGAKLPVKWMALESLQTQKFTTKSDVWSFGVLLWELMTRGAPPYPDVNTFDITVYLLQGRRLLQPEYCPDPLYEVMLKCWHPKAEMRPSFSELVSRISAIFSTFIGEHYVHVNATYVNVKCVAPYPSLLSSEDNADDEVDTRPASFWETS

Molecule `Cc1nc2nc(Sc3ccccc3)cnc2cc1NC(=O)Nc1ccccc1` has an Activity (MDA-MB-231 [1]) greater than 50%, an Activity (HCC1954 [2]) greater than 50% and a pIC50 (MDA-MB-231 [3]) of 5.21. For the same molecule, the pIC50 (HCC1954 [4]) was 5.82, the inhibition [5] was “inactive” and the inhibition [6] was “inactive”. For the same molecule, the inhibition [7] was “inactive”, the inhibition [8] was “Active” and the Cmax [9] was 820 nM. For the same molecule, the Tmax [10] was 30 min, the AUC(0-t) at 8 h [11] was 2.85 µM·h and the Activity (Mus musculus [12]) was “Non-Toxic”. For the same molecule, the Cmax [13] was 4300 to 4320 nM, the Activity (Mus musculus [14]) was “Toxic” and the Activity (HCC1954 [15]) was 0.2 g. The inhibition (Mus musculus [16]) was “Active”, the inhibition [17] was 8% and the inhibition [18] was 9%. For the same molecule, the inhibition [19] was 0%, the inhibition [20] was 18% and the inhibition [21] was 6%. For the same molecule, the inhibition [22] was 5%, the inhibition [23] was 0% and the inhibition [24] was 40%. The inhibition [25] was 0%, the inhibition [26] was 3% and the inhibition [27] was 9%. The inhibition [28] was 1% and the inhibition [29] was 0%.

Source: ChEMBL document CHEMBL4000195, “Design and synthesis of novel 7-aminosubstituted pyrido[2,3-b]pyrazines exhibiting anti-breast cancer activity” (Eur J Med Chem, 2017)
